Source: patent US20250073240A1, “NEW TREATMENT” (Verona Pharma PLC, priority 2023, published 2025)

How the values were obtained:
Type in all cases: in vivo, human
[1] = tested on: patients with symptomatic, moderate-to-severe COPD; experiment: Pooled analysis of two phase 3 trials (Example 2): moderate/severe exacerbation rate and time to first exacerbation
[2] = tested on: patients with moderate to severe COPD; experiment: Phase 3 clinical study (Example 1): safety assessment, risk of pneumonia; conditions: patients with blood eosinophil count <300 cells/μL
Method: (§1) A clinical study was conducted to determine the efficacy of ensifentrine in treating COPD compared with placebo. Ensifentrine was administered by nebuliser at a dose of 3 mg twice daily (BID) for 24 weeks. The study was a multi-centre, randomized, double-blind, parallel-group, placebo-controlled trial with around 800 patients and 5:3 randomization.
(§2) The study population included patients aged 40-80 years with moderate to severe COPD (FEV1 30%-70% p.n., FEV1/forced vital capacity (FVC) ratio <0.7, with mMRC≥2). The randomization stratified (a) the use of stable background maintenance LAMA or LABA therapy use (approx. 50%. yes or no) and (b) cigarette smoking (current or former). Inhaled corticosteroid (ICS) maintenance therapy was permitted in up to 20% of patients under certain provisions.

[3] = tested on: patients with moderate to severe COPD; experiment: Phase 3 clinical study (Example 1): moderate/severe COPD exacerbations, by blood eosinophil count
Method: as §1, §2
(§3) The primary endpoint of the study was change from baseline in average FEV1 area under the curve (AUC)0-12 h post-dose at week 12. Secondary endpoints of the study included: frequency of moderate/severe COPD exacerbations over 24 Weeks; time to first moderate/severe COPD exacerbation; and effect of blood eosinophil count of patients.
Exacerbations were defined as worsening of 2 or more major symptoms (dyspnea, sputum volume, and sputum purulence) or worsening of any 1 major symptom together with any 1 of the following minor symptoms: sore throat, colds, fever without other cause, and increased cough or wheeze for at least 2 consecutive days. COPD exacerbations were considered to be of moderate severity if treatment with systemic corticosteroids and/or antibiotics was required and were considered to be severe if hospitalization was required.
The blood eosinophil count of patients was determined as follows. • A blood sample (2 mL) was collected in 2 mL EDTA tube and mixed immediately using gentle inversion 8-10 times. • Eosinophils were tested as part of the Complete Blood Count (CBC) test panel and are part of the White Blood Cell (WBC) differential. • Testing was performed on the Beckman Coulter DxH 800, with testing performed daily on ambient samples. • The haematology parameters that constitute the CBC panel were produced using methods and technologies within the DxH800, including Coulter principle and VCSn laser flow cell technology. • The WBC differential was obtained using VCSn technology (Volume, Conductivity and Scatter) based on simultaneous measuring of cell volume, high frequency conductivity and laser light scatter. This produced an automated WBC differential. • During analysis, if any parameter was abnormal or outside established limits the instrument flagged this as abnormal and produced a stained blood slide. • Blood film review was completed using manual microscopy and a technician confirmed any abnormal findings. • The technician could have also provided a manual WBC differential during blood film review or confirm the automated WBC differential. • Finalised results were then provided.
(§4) The investigational product and placebo were provided in 2.5 mL unit dose format in an ampule and administered via a nebuliser.

[4] = tested on: patients with moderate to severe COPD; experiment: Phase 3 clinical study (Example 1): lung function, average FEV1 AUC0-12h
Method: as §1, §2, §3
Baseline FEV1 is the mean of the two measurements taken before study medication on the day of first dosing, i.e. <40 minutes and just prior to dosing, both pre-dose on day 1.
Average FEV1 AUC0-12 h is defined as area under the curve over 12 hours of the FEV1, divided by 12 hours.
as §4

[5] = Blood eosinophils < 100 cells/μL (n = 10)
[6] = Blood eosinophils ≥ 100 cells/μL (n = 74)
[7] = Blood eosinophils > 150 cells/μL (n = 445)
[8] = Blood eosinophils ≤ 150 cells/μL (n = 343)

SMILES: COc1cc2c(cc1OC)-c1c/c(=N\c3c(C)cc(C)cc3C)n(CCNC(N)=O)c(=O)n1CC2 [Ensifentrine, N-(2-{(2E)-9,10-dimethoxy-4-oxo-2-[(2,4,6-trimethylphenyl)imino]-6,7-dihydro-2H-pyrimido[6,1-a]isoquinolin-3(4H)-yl}ethyl)urea]
- Hazard Ratio (95% Confidence Interval), time to first moderate/severe exacerbation [1, 5]: 0.52 (0.22, 1.24)
- Rate Ratio (95% Confidence Interval), moderate/severe exacerbation [1, 5]: 0.50 (0.22, 1.17)
- Hazard Ratio (95% Confidence Interval), time to first moderate/severe exacerbation ([1]; Blood eosinophils < 300 cells/μL (n = 60)): 0.53 (0.37, 0.76)
- Rate Ratio (95% Confidence Interval), moderate/severe exacerbation ([1]; Blood eosinophils < 300 cells/μL (n = 65)): 0.53 (0.37, 0.75)
- Hazard Ratio (95% Confidence Interval), time to first moderate/severe exacerbation [1, 6]: 0.60 (0.43, 0.83)
- Rate Ratio (95% Confidence Interval), moderate/severe exacerbation [1, 6]: 0.60 (0.43, 0.84)
- Hazard Ratio (95% Confidence Interval), time to first moderate/severe exacerbation ([1]; Blood eosinophils ≥ 300 cells/μL (n = 24)): 0.79 (0.43, 1.45)
- Rate Ratio (95% Confidence Interval), moderate/severe exacerbation ([1]; Blood eosinophils ≥ 300 cells/μL (n = 29)): 0.82 (0.45, 1.51)
- reduction in exacerbation rate ([1]; blood eosinophil counts <100 cells/μL): about 50%
- reduction in exacerbation rate ([1]; blood eosinophil counts ≤300 cells/μL): about 47%
- number needed to treat (NNT) for the prevention of 1 exacerbation annually ([1]; pooled population): 6.25 patients
- reduction in the moderate/severe exacerbation rate compared with placebo ([1]; pooled population, 3 mg BID over 24 weeks): 41%
- reduction in risk (Cox proportional hazards model), time to first moderate/severe exacerbation ([1]; pooled population, 24 weeks): 41%
- rate ratio, moderate/severe exacerbation rate ([1]; pooled population, 24 weeks, 95% CI 0.43-0.80): 0.59
- hazard ratio, time to first moderate/severe exacerbation ([1]; pooled population, 24 weeks, 95% CI 0.44-0.81): 0.59
- time to first moderate/severe exacerbation compared with placebo ([1]; pooled population, over 24 weeks, log rank test P=0.001): significantly delayed
- transition from lower to higher exacerbation risk (group B to group E) compared with placebo ([1]; post hoc analysis, 24 weeks): numerically delayed
- risk of pneumonia [2]: no significant increase
- Exacerbation Rate Reduction [3, 7]: 43%
- Rate Ratio (95% Confidence Interval), COPD exacerbations [3, 7]: 0.57 (0.34, 0.97)
- Exacerbation Rate Reduction [3, 8]: 42%
- Rate Ratio (95% Confidence Interval), COPD exacerbations [3, 8]: 0.58 (0.30, 1.14)
- reduction in relative risk of moderate or severe COPD exacerbation vs placebo ([3]; all patients, 3 mg BID, 24 weeks): approximately 40%
- reduction in relative risk of moderate or severe COPD exacerbation vs placebo ([3]; subgroup blood eosinophil count <150 cells/μL): around 40%
- reduction in relative risk of moderate or severe COPD exacerbation vs placebo ([3]; subgroup blood eosinophil count <300 cells/μL): around 50%
- Average FEV1 (AUC)0-12 h post-dose at Week 12: Change from Baseline, CFB Least Squares Mean (95% CI) ([4]; 3 mg BID by nebuliser, week 12, n = 498): 48.2 (30.0, 66.5) mL
- Average FEV1 (AUC)0-12 h post-dose at Week 12: Placebo-corrected CFB LS Mean Diff (95% CI) ([4]; 3 mg BID by nebuliser, week 12, vs placebo): 93.9 (64.5, 123.3) mL
- improvement in lung function ([4]; all subgroups, 3 mg BID): statistically significant
